# Laboratory results published in patent US4288590A, “7 -[Dα-(4-Hydroxy-1,5-naphthyridine-3-carboxamido)-α-arylacetam ido]-3-(N,N-dimethyl-aminomethylpyridinium) methyl-3-cephem-4-carboxylates” (Bristol-Myers Company, priority 1980, dated 1981).
# Structures can show the parent of a compound that is named as a salt.
# Experiments:
# P. aeruginosa A21509 = test: In vivo efficacy, experimental infection in mice; details: Pseudomonas aeruginosa, A21509, in Mus musculus, im, 120 h, read-out: PD50 (median protective dose)
# Description: (§3) The mice were treated with test compound by im route immediately after the bacterial challenge.
# [1] = Additional mouse blood levels after intramuscular administration (Table 4); format: in vivo; details: mice, im, read-out: Blood level
# Description: (§1) […] The blood samples were collected from the orbital sinuses into heparinized capillary tubes at 15, 30, 60 and 120 minutes after administration. The antibiotic concentration was determined by the paper disc-agar diffusion method using E. coli NIHJ or S. lutea PCI 1001 as the assay organism.
# E. coli Juhl A15119 = test: In vivo efficacy, experimental infection in mice; details: Escherichia coli, JUHLA15119, in Mus musculus, im, 120 h, read-out: PD50 (median protective dose)
# Description: as §3
# P. aeruginosa A9843 = test: In vivo efficacy, experimental infection in mice; details: Pseudomonas aeruginosa, A9843, in Mus musculus, im, 120 h, read-out: PD50 (median protective dose)
# Description: as §3
# P. mirabilis A9900 = test: In vivo efficacy, experimental infection in mice; details: Proteus mirabilis, A9900, in Mus musculus, im, 120 h, read-out: PD50 (median protective dose)
# Description: as §3
# S. pyogenes A20201 = test: In vivo efficacy, experimental infection in mice; details: Streptococcus pyogenes, A20201, in Mus musculus, im, 120 h, read-out: PD50 (median protective dose)
# Description: as §3
# S. aureus Smith A9537 = test: In vivo efficacy, experimental infection in mice; details: Staphylococcus aureus, SMITHA9537, in Mus musculus, im, 120 h, read-out: PD50 (median protective dose)
# Description: as §3
# [2] = Mouse blood levels after intramuscular administration (Table 3); format: in vivo; details: im, read-out: Blood level; for concentration at 0.25 h: 15'; for concentration at 0.5 h: 30'; for concentration at 1 h: 60'; for concentration at 2 h: 120'
# Description: as §1
# K. pneumoniae A9977 = test: In vivo efficacy, experimental infection in mice; details: Klebsiella pneumoniae, A9977, in Mus musculus, im, 120 h, read-out: PD50 (median protective dose)
# Description: as §3
# K. pneumoniae (Gn-Ia) = test: In vitro activity, MIC of strain group (Table 2); format: cell-based; details: Klebsiella pneumoniae, 10 strains, read-out: Geometric mean of MIC
# Description: (§2) Minimum inhibitory concentrations (MIC) of BB-S 651, BB-S 669 and BB-S 676 were determined by serial two-fold agar dilution method using Steers' apparatus on Mueller-Hinton agar plate against 15 test organisms for primary screening as shown in Table 1.
# S. pneumoniae = test: In vitro activity, MIC of strain group (Table 2); format: cell-based; details: Streptococcus pneumoniae; Gp-II S. pneumoniae, 9 strains; read-out: Geometric mean of MIC
# Description: as §2
# P. mirabilis (Gn-Ia) = test: In vitro activity, MIC of strain group (Table 2); format: cell-based; details: Proteus mirabilis, 6 strains, read-out: Geometric mean of MIC
# Description: as §2
# S. pyogenes = test: In vitro activity, MIC of strain group (Table 2); format: cell-based; details: Streptococcus pyogenes; Gp-II S. pyogenes, 10 strains; read-out: Geometric mean of MIC
# Description: as §2
# E. coli (Gn-Ia) = test: In vitro activity, MIC of strain group (Table 2); format: cell-based; details: Escherichia coli, 7 strains, read-out: Geometric mean of MIC
# Description: as §2
# K. pneumoniae (Gn-Ib) = test: In vitro activity, MIC of strain group (Table 2); format: cell-based; details: Klebsiella pneumoniae, 5 strains, read-out: Geometric mean of MIC
# Description: as §2
# S. aureus (Gp-Ia) = test: In vitro activity, MIC of strain group (Table 2); format: cell-based; details: Staphylococcus aureus, 12 strains, read-out: Geometric mean of MIC
# Description: as §2
# S. aureus (Gp-Ib) = test: In vitro activity, MIC of strain group (Table 2); format: cell-based; details: Staphylococcus aureus, 16 strains, read-out: Geometric mean of MIC
# Description: as §2
# E. coli (Gn-Ib) = test: In vitro activity, MIC of strain group (Table 2); format: cell-based; details: Escherichia coli, 13 strains, read-out: Geometric mean of MIC
# Description: as §2
# P. aeruginosa = test: In vitro activity, MIC of strain group (Table 2); format: cell-based; details: Pseudomonas aeruginosa; Gn-III P. aeruginosa, 32 strains; read-out: Geometric mean of MIC
# Description: as §2
# Neisseria sp. = test: In vitro activity, MIC of strain group (Table 2); format: cell-based; details: Gn-IV Neisseria sp., 6 strains; read-out: Geometric mean of MIC
# Description: as §2
# H. influenzae = test: In vitro activity, MIC of strain group (Table 2); format: cell-based; details: Haemophilus influenzae; Gn-IV H. influenzae, 4 strains; read-out: Geometric mean of MIC
# Description: as §2
# P. cepacia = test: In vitro activity, MIC of strain group (Table 2); format: cell-based; details: Burkholderia cepacia; Gn-III P. cepacia, 4 strains; read-out: Geometric mean of MIC
# Description: as §2
# P. stuartii = test: In vitro activity, MIC of strain group (Table 2); format: cell-based; details: Providencia stuartii; Gn-II P. stuartii, 5 strains; read-out: Geometric mean of MIC
# Description: as §2
# S. marcescens = test: In vitro activity, MIC of strain group (Table 2); format: cell-based; details: Serratia marcescens; Gn-II S. marcescens, 10 strains; read-out: Geometric mean of MIC
# Description: as §2
# P. mirabilis (Gn-Ib) = test: In vitro activity, MIC of strain group (Table 2); format: cell-based; details: Proteus mirabilis, 2 strains, read-out: Geometric mean of MIC
# Description: as §2
# Indole(+) Proteus sp. = test: In vitro activity, MIC of strain group (Table 2); format: cell-based; details: Gn-II Indole(+) Proteus sp., 8 strains; read-out: Geometric mean of MIC
# Description: as §2
compound,measurement,setting,value
"CN(C)Cc1ccc[n+](CC2=C(C(=O)[O-])N3C(=O)C(NC(=O)[C@H](NC(=O)c4cnc5cccnc5c4O)c4ccc(O)cc4)C3SC2)c1 (stereo partly drawn) [BB-S 651, 7-[D-α-(4-Hydroxy-1,5-naphthyridine-3-carboxamido)-α-(4-hydroxyphenyl)acetamido]-3-(3-N,N-dimethylaminomethylpyridinium)methyl-3-cephem-4-carboxylate Hydrochloride]",ED50,P. aeruginosa A21509,3.2 mg/kg
same,concentration at 0.5 h,"[1]; 10 mg/kg, dose 10, 1/2 hour",3300 ng/mL
same,concentration at 0.25 h,"[1]; 10 mg/kg, dose 10, 1/4 hour",4300 ng/mL
same,concentration at 1 h,"[1]; 10 mg/kg, dose 10, 1 hour",2500 ng/mL
same,concentration at 2 h,"[1]; 10 mg/kg, dose 10, 2 hour",< 800 ng/mL
same,concentration at 0.5 h,"[1]; 20 mg/kg, dose 20, 1/2 hour",7400 ng/mL
same,concentration at 0.25 h,"[1]; 20 mg/kg, dose 20, 1/4 hour",10000 ng/mL
same,concentration at 1 h,"[1]; 20 mg/kg, dose 20, 1 hour",5800 ng/mL
same,concentration at 2 h,"[1]; 20 mg/kg, dose 20, 2 hour",< 800 ng/mL
same,concentration at 0.5 h,"[1]; 40 mg/kg, 1/2 hour",14000 ng/mL
same,concentration at 0.25 h,"[1]; 40 mg/kg, 1/4 hour",20000 ng/mL
same,concentration at 1 h,"[1]; 40 mg/kg, 1 hour",10000 ng/mL
same,concentration at 2 h,"[1]; 40 mg/kg, 2 hour",3000 ng/mL
same,ED50,E. coli Juhl A15119,1.9 mg/kg
same,ED50,P. aeruginosa A9843,1.9 mg/kg
same,ED50,P. mirabilis A9900,> 25 mg/kg
same,ED50,S. pyogenes A20201,1.1 mg/kg
same,ED50,S. aureus Smith A9537,1.1 mg/kg
same,concentration at 0.25 h,[2]; 10 mg/kg,5000 ng/mL
same,concentration at 0.5 h,[2]; 10 mg/kg,3000 ng/mL
same,concentration at 1 h,[2]; 10 mg/kg,< 400 ng/mL
same,concentration at 2 h,[2]; 10 mg/kg,< 400 ng/mL
same,concentration at 0.25 h,[2]; 20 mg/kg,11000 ng/mL
same,concentration at 0.5 h,[2]; 20 mg/kg,9000 ng/mL
same,concentration at 1 h,[2]; 20 mg/kg,5000 ng/mL
same,concentration at 2 h,[2]; 20 mg/kg,< 400 ng/mL
same,concentration at 0.25 h,[2]; 40 mg/kg,25000 ng/mL
same,concentration at 0.5 h,[2]; 40 mg/kg,18000 ng/mL
same,concentration at 1 h,[2]; 40 mg/kg,11000 ng/mL
same,concentration at 2 h,[2]; 40 mg/kg,3000 ng/mL
same,ED50,K. pneumoniae A9977,7.4 mg/kg
same,MIC,K. pneumoniae (Gn-Ia),18 µg/mL
same,MIC,S. pneumoniae,0.8 µg/mL
same,MIC,P. mirabilis (Gn-Ia),> 100 µg/mL
same,MIC,S. pyogenes,0.4 µg/mL
same,MIC,E. coli (Gn-Ia),2.6 µg/mL
same,MIC,K. pneumoniae (Gn-Ib),> 100 µg/mL
same,MIC,S. aureus (Gp-Ia),3.7 µg/mL
same,MIC,S. aureus (Gp-Ib),42 µg/mL
same,MIC,E. coli (Gn-Ib),29 µg/mL
same,MIC,P. aeruginosa,1.7 µg/mL
same,MIC,Neisseria sp.,1.6 µg/mL
same,MIC,H. influenzae,0.8 µg/mL
same,MIC,P. cepacia,59 µg/mL
same,MIC,P. stuartii,1.6 µg/mL
same,MIC,S. marcescens,> 100 µg/mL
same,MIC,P. mirabilis (Gn-Ib),> 100 µg/mL
same,MIC,Indole(+) Proteus sp.,> 100 µg/mL
"CCN1CCN(C(=O)N[C@@H](C(=O)N[C@@H]2C(=O)N3C(C(=O)O)=C(CSc4nnnn4C)CS[C@H]23)c2ccc(O)cc2)C(=O)C1=O [Cefoperazone, reference compound]",ED50,P. aeruginosa A21509,30 mg/kg
same,concentration at 0.5 h,"[1]; 10 mg/kg, dose 10, 1/2 hour",3500 ng/mL
same,concentration at 0.25 h,"[1]; 10 mg/kg, dose 10, 1/4 hour",5000 ng/mL
same,concentration at 1 h,"[1]; 10 mg/kg, dose 10, 1 hour",1200 ng/mL
same,concentration at 2 h,"[1]; 10 mg/kg, dose 10, 2 hour",< 800 ng/mL
same,concentration at 0.5 h,"[1]; 20 mg/kg, dose 20, 1/2 hour",6300 ng/mL
same,concentration at 0.25 h,"[1]; 20 mg/kg, dose 20, 1/4 hour",10500 ng/mL
same,concentration at 1 h,"[1]; 20 mg/kg, dose 20, 1 hour",2500 ng/mL
same,concentration at 2 h,"[1]; 20 mg/kg, dose 20, 2 hour",< 800 ng/mL
same,concentration at 0.5 h,"[1]; 40 mg/kg, 1/2 hour",12000 ng/mL
same,concentration at 0.25 h,"[1]; 40 mg/kg, 1/4 hour",18000 ng/mL
same,concentration at 1 h,"[1]; 40 mg/kg, 1 hour",5400 ng/mL
same,concentration at 2 h,"[1]; 40 mg/kg, 2 hour",1200 ng/mL
same,ED50,E. coli Juhl A15119,1.1 mg/kg
same,ED50,P. aeruginosa A9843,20 mg/kg
same,ED50,P. mirabilis A9900,6.3 mg/kg
same,ED50,S. pyogenes A20201,2.5 mg/kg
same,ED50,S. aureus Smith A9537,2.4 mg/kg
same,concentration at 0.25 h,[2]; 10 mg/kg,3500 ng/mL
same,concentration at 0.5 h,[2]; 10 mg/kg,1800 ng/mL
same,concentration at 1 h,[2]; 10 mg/kg,< 400 ng/mL
same,concentration at 2 h,[2]; 10 mg/kg,< 400 ng/mL
same,concentration at 0.25 h,[2]; 20 mg/kg,9000 ng/mL
same,concentration at 0.5 h,[2]; 20 mg/kg,5500 ng/mL
same,concentration at 1 h,[2]; 20 mg/kg,1300 ng/mL
same,concentration at 2 h,[2]; 20 mg/kg,< 400 ng/mL
same,concentration at 0.25 h,[2]; 40 mg/kg,19000 ng/mL
same,concentration at 0.5 h,[2]; 40 mg/kg,14000 ng/mL
same,concentration at 1 h,[2]; 40 mg/kg,2500 ng/mL
same,concentration at 2 h,[2]; 40 mg/kg,< 400 ng/mL
same,ED50,K. pneumoniae A9977,0.6 mg/kg
same,MIC,K. pneumoniae (Gn-Ia),0.9 µg/mL
same,MIC,S. pneumoniae,0.8 µg/mL
same,MIC,P. mirabilis (Gn-Ia),0.8 µg/mL
same,MIC,S. pyogenes,0.2 µg/mL
same,MIC,E. coli (Gn-Ia),0.2 µg/mL
same,MIC,K. pneumoniae (Gn-Ib),100 µg/mL
same,MIC,S. aureus (Gp-Ia),1.6 µg/mL
same,MIC,S. aureus (Gp-Ib),17 µg/mL
same,MIC,E. coli (Gn-Ib),3.7 µg/mL
same,MIC,P. aeruginosa,11 µg/mL
same,MIC,Neisseria sp.,0.8 µg/mL
same,MIC,H. influenzae,0.8 µg/mL
same,MIC,P. cepacia,> 100 µg/mL
same,MIC,P. stuartii,0.8 µg/mL
same,MIC,S. marcescens,47 µg/mL
same,MIC,P. mirabilis (Gn-Ib),12.5 µg/mL
same,MIC,Indole(+) Proteus sp.,3.5 µg/mL
